In the case of `Cc1cc(C(=O)CN2CCOCC2)ccc1NC(=O)Cc1ccc(C)c(Oc2cc(Cl)cc(C#N)c2)c1.O=C(O)C(F)(F)F`, the melting point – broadly, the temperature of the solid-liquid transition – lay in the range of 110.3 to 110.5 °C. Compound `CC(F)(F)c1cc(C#N)cc(Oc2c(Cl)ccc(CC(=O)Nc3ccc(S(N)(=O)=O)cc3)c2F)c1` [Compound I-95, 2-{4-Chloro-3-[3-cyano-5-(1,1-difluoro-ethyl)-phenoxy]-2-fluoro-phenyl}-N-(4-sulfamoyl-phenyl)-acetamide] registered a melting point of 207 to 209.8 °C.

Turning to `COc1ccc(CC(=O)Nc2ccc(S(N)(=O)=O)cc2Cl)c(F)c1Oc1cc(Cl)cc(C#N)c1` [Compound I-190, 2-[3-(3-Chloro-5-cyano-phenoxy)-2-fluoro-4-methoxy-phenyl]-N-(2-chloro-4-sulfamoyl-phenyl)-acetamide], the melting point was in the range of 212 to 212.8 °C. The result for `CCc1ccc(CC(=O)Nc2ccc(S(N)(=O)=O)cc2)cc1Oc1cc(Cl)cc(Br)c1` [Compound I-22, 2-[3-(3-Bromo-5-chloro-phenoxy)-4-ethyl-phenyl]-N-(4-sulfamoyl-phenyl)-acetamide] reads 216.1 to 221.3 °C; that for `N#Cc1cccc(Oc2cc(CC(=O)Nc3ccc(S(N)(=O)=O)cc3)cc3ccoc23)c1` [Compound I-144, 2-[7-(3-Cyano-phenoxy)-benzofuran-5-yl]-N-(4-sulfamoyl-phenyl)-acetamide], 196.4 to 198.7 °C. The compound `CCc1ccc(CC(=O)Nc2ccccc2Cl)cc1Oc1c(Cl)cccc1Cl` [Compound I-23, N-(2-Chloro-phenyl)-2-[3-(2,6-dichloro-phenoxy)-4-ethyl-phenyl]-acetamide] had a melting point of 107 to 110.5 °C. The compound `CCc1ccc(CC(=O)Nc2ccc(S(N)(=O)=O)cc2C)cc1Oc1cc(C#N)cc(C#N)c1Cl` [Compound I-53, 2-[3-(2-Chloro-3,5-dicyano-phenoxy)-4-ethyl-phenyl]-N-(2-methyl-4-sulfamoyl-phenyl)-acetamide] showed a melting point of 199.4 to 205.3 °C.

Compound `NS(=O)(=O)c1ccc(NC(=O)Cc2ccc(Cl)c(Oc3cc(Cl)cc(Cl)c3Cl)c2F)cc1` [Compound I-10, 2-[4-Chloro-2-fluoro-3-(2,3,5-trichloro-phenoxy)-phenyl]-N-(4-sulfamoyl-phenyl)-acetamide] registered a melting point of 247 to 249 °C. Consider `CCC(=O)N(C)S(=O)(=O)c1ccc(NC(=O)Cc2ccc(Cl)c(Oc3cc(Cl)cc(C#N)c3)c2F)c(C)c1` [Compound I-99, 2-[4-Chloro-3-(3-chloro-5-cyano-phenoxy)-2-fluoro-phenyl]-N-[2-methyl-4-(methyl-propionyl-sulfamoyl)-phenyl]-acetamide], for which the melting point lay within 212 to 216.9 °C. `Cc1cc(N2CCCS2(=O)=O)ccc1NC(=O)Cc1ccc(C)c(Oc2cc(Cl)cc(C#N)c2)c1` [Compound I-170, 2-[3-(3-Chloro-5-cyano-phenoxy)-4-methyl-phenyl]-N-[4-(1,1-dioxo-1λ^6-isothiazolidin-2-yl)-2-methyl-phenyl]-acetamide] registered a melting point of 182.5 to 184.6 °C.

Take `CCN(CC)CC(=O)NS(=O)(=O)c1ccc(NC(=O)Cc2ccc(Cl)c(Oc3cc(Cl)cc(C#N)c3)c2F)c(Cl)c1.Cl`: the melting point lay in the range of 195.3 to 197.2 °C. For the compound `N#Cc1cc(Oc2cc(CC(=O)Nc3ccc(S(N)(=O)=O)cc3)ccc2Cl)cc(C(F)(F)F)c1` [Compound I-88, 2-[4-Chloro-3-(3-cyano-5-trifluoromethyl-phenoxy)-phenyl]-N-(4-sulfamoyl-phenyl)-acetamide], the melting point lay in the range of 219 to 221.4 °C. With `CCc1ccc(CC(=O)Nc2ccccc2Cl)cc1Oc1cc(Br)cc(F)c1Cl` [Compound I-41, 2-[3-(5-Bromo-2-chloro-3-fluoro-phenoxy)-4-ethyl-phenyl]-N-(2-chloro-phenyl)-acetamide], the melting point was in the range of 146.6 to 147.2 °C. The value for `CCc1ccc(CC(=O)Nc2ccccc2Cl)cc1Oc1cc(C#N)cc(C#N)c1Cl` [Compound I-60, 2-[3-(2-Chloro-3,5-dicyano-phenoxy)-4-ethyl-phenyl]-N-(2-chloro-phenyl)-acetamide] was 110 to 111.5 °C. In the case of `N#Cc1cc(Cl)cc(Oc2c(Cl)ccc(CC(=O)Nc3ccc(S(=O)(=O)NC(=O)CCC(=O)O)cc3Cl)c2F)c1` [Compound I-188, 4-(3-Chloro-4-{2-[4-chloro-3-(3-chloro-5-cyano-phenoxy)-2-fluoro-phenyl]-acetylamino}-benzenesulfonylamino)-4-oxo-butyric acid], the melting point is 143.4 to 144 °C. The result for `COc1ccc(CC(=O)Nc2ccc(S(N)(=O)=O)cc2C)c(F)c1Oc1cc(Cl)cc(C#N)c1` [Compound I-191, 2-[3-(3-Chloro-5-cyano-phenoxy)-2-fluoro-4-methoxy-phenyl]-N-(2-methyl-4-sulfamoyl-phenyl)-acetamide] reads 239.9 to 240.8 °C; that for `N#Cc1cc(C#N)cc(Oc2c(Cl)ccc(CC(=O)Nc3ccccc3Cl)c2F)c1` [Compound I-28, 2-[4-Chloro-3-(3,5-dicyano-phenoxy)-2-fluoro-phenyl]-N-(2-chloro-phenyl)-acetamide], 182.6 to 196.5 °C. Consider `Cc1cc(N2CCCCS2(=O)=O)ccc1NC(=O)Cc1ccc(C)c(Oc2cc(Cl)cc(C#N)c2)c1` [Compound I-158, 2-[3-(3-Chloro-5-cyano-phenoxy)-4-methyl-phenyl]-N-[4-(1,1-dioxo-1λ^6-[1,2]thiazinan-2-yl)-2-methyl-phenyl]-acetamide], for which the melting point fell in the range of 84.3 to 85.6 °C. As for `COc1ccc(CC(=O)Nc2ccc(S(N)(=O)=O)cc2C)cc1Oc1cc(Cl)cc(C#N)c1` [Compound I-73, 2-[3-(3-Chloro-5-cyano-phenoxy)-4-methoxy-phenyl]-N-(2-methyl-4-sulfamoyl-phenyl)-acetamide], the melting point is 222.3 to 224.3 °C. `N#Cc1cc(Cl)cc(Oc2cc(CC(=O)Nc3ccc(S(N)(=O)=O)cc3)ccc2Cl)c1` [Compound I-1, 2-[4-Chloro-3-(3-chloro-5-cyano-phenoxy)-phenyl]-N-(4-sulfamoyl-phenyl)-acetamide] returned a melting point of 210.5 to 214 °C. `CCc1ccc(CC(=O)Nc2ccc(S(N)(=O)=O)cc2)cc1Oc1cc(Cl)ccc1C#N` [Compound I-17, 2-[3-(5-Chloro-2-cyano-phenoxy)-4-ethyl-phenyl]-N-(4-sulfamoyl-phenyl)-acetamide] gave a melting point of 198.1 to 202.6 °C.

`Cc1cc(S(N)(=O)=O)ccc1NC(=O)Cc1ccc(C)c(Oc2cc(Cl)cc(C#N)c2)c1` [Compound I-122, 2-[3-(3-Chloro-5-cyano-phenoxy)-4-methyl-phenyl]-N-(2-methyl-4-sulfamoyl-phenyl)-acetamide] registered a melting point of 192.8 to 194.1 °C. In turn, `Cc1cc(OCCCS(N)(=O)=O)ccc1NC(=O)Cc1ccc(Cl)c(Oc2cc(Cl)ccc2Br)c1` [Compound I-3, 2-[3-(2-Bromo-5-chloro-phenoxy)-4-chloro-phenyl]-N-[2-methyl-4-(3-sulfamoyl-propoxy)-phenyl]-acetamide] displayed a melting point of 190.1 to 192.2 °C.

`COc1cc(CC(=O)Nc2ccc(S(N)(=O)=O)cc2)cc(Oc2cc(Cl)cc(C#N)c2)c1` [Compound I-132, 2-[3-(3-Chloro-5-cyano-phenoxy)-5-methoxy-phenyl]-N-(4-sulfamoyl-phenyl)-acetamide] yielded a melting point of 184.1 to 185.5 °C.

The record behind these values is US7166738B2, “Non-nucleoside reverse transcriptase inhibitors” (Roche Palo Alto LLC, priority 2004, dated 2007).
